Substitutions are numbered along the chain they refer to. Several values for one entry are separate records, joined by “and”; a condition that tells them apart may be missing. Equal entries are not always repeated.
Key:
[1] = target: T1, SLC35B1 Q113F (Homo sapiens, UniProt P78383, Q113F); conditions: variant Q113F; 1 mM ATP
T1 sequence (P78383 1-322 Q113F): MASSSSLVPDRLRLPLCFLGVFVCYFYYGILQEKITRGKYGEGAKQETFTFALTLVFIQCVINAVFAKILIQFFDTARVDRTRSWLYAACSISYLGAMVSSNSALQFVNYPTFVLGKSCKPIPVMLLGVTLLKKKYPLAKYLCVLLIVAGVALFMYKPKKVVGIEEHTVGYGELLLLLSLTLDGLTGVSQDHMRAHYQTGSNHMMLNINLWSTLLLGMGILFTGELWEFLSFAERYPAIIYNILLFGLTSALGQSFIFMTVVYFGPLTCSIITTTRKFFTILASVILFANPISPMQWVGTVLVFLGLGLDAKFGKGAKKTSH

[2] = target: T2, SLC35B1 Q190A (Homo sapiens, UniProt P78383, Q190A); conditions: variant Q190A; 1 mM ATP
T2 sequence (P78383 1-322 Q190A): T1 sequence (P78383 1-322 Q113F) with F113Q, Q190A

[3] = target: SLC35B1 R194A (Homo sapiens, UniProt P78383, R194A); conditions: variant R194A; 1 mM ATP
SLC35B1 R194A, sequence (P78383 whole entry R194A): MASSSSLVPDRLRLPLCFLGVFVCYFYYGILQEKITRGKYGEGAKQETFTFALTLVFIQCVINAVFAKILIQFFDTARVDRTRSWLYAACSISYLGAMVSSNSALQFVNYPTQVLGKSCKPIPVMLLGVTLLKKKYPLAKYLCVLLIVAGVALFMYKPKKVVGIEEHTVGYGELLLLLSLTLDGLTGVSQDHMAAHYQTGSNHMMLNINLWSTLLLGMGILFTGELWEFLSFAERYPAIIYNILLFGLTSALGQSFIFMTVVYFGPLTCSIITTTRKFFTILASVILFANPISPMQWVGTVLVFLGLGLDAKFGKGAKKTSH

[4] = target: T3, SLC35B1 I257E (Homo sapiens, UniProt P78383, I257E); conditions: variant I257E; 1 mM ATP
T3 sequence (P78383 1-322 I257E): T1 sequence (P78383 1-322 Q113F) with F113Q, I257E

[5] = target: SLC35B1 T273A (Homo sapiens, UniProt P78383, T273A); conditions: variant T273A; 1 mM ATP
SLC35B1 T273A, sequence (P78383 whole entry T273A): as the sequence (P78383 whole entry R194A) above, with A194R, T273A counted along it

[6] = target: T4, SLC35B1 R276A (Homo sapiens, UniProt P78383, R276A); conditions: variant R276A; 1 mM ATP
T4 sequence (P78383 1-322 R276A): T1 sequence (P78383 1-322 Q113F) with F113Q, R276A

[7] = target: T5, SLC35B1 K277A (Homo sapiens, UniProt P78383, K277A); conditions: variant K277A; 1 mM ATP
T5 sequence (P78383 1-322 K277A): T1 sequence (P78383 1-322 Q113F) with F113Q, K277A

[8] = target: T6, human SLC35B1 (wild type) (Homo sapiens, UniProt P78383); conditions: single temperature 37 °C
T6 sequence (P78383 1-322): T1 sequence (P78383 1-322 Q113F) with F113Q

[9] = target: T4, SLC35B1 R276A; conditions: variant R276A; 37 °C
[10] = target: T3, SLC35B1 I257E; conditions: variant I257E; 37 °C
[11] = target: T7, SLC35B1 C269A (Homo sapiens, UniProt P78383, C269A); conditions: variant C269A; 37 °C
T7 sequence (P78383 1-322 C269A): T1 sequence (P78383 1-322 Q113F) with F113Q, C269A

[12] = system: crude ER microsomes; conditions: read-out: Km for ATP import into crude ER microsomes; cited from earlier work
[13] = system: BiP; conditions: cited from earlier work
[14] = target: SLC35B1 K120A (Homo sapiens, UniProt P78383, K120A); assay: biochemical; conditions: read-out: ΔTm, individual titrations (source data), variant K120A; 1 mM ATP
SLC35B1 K120A, sequence (P78383 whole entry K120A): as the sequence (P78383 whole entry R194A) above, with K120A, A194R counted along it

[15] = target: T6, human SLC35B1 (wild type); assay type: binding; set-up: made in house; host or cells: Saccharomyces cerevisiae FGY217

Nc1ncnc2c1ncn2[C@@H]1O[C@H](COP(=O)(O)OP(=O)(O)OP(=O)(O)O)[C@@H](O)[C@H]1O [ATP]
ΔTm, individual titrations (source data) [1]: 6.34 | ΔTm, individual titrations (source data) [2]: 5.9 | DTM (ΔTm with ATP) [3]: robust ATP binding | ΔTm, individual titrations (source data) [4]: 1.4 | ΔTm, individual titrations (source data) [5]: 2.49 | ΔTm, individual titrations (source data) [6]: 0.15 and 0.2 | ΔTm, individual titrations (source data) [7]: 2.51 | Concentration of maximal thermostabilization [8]: 1 mM | Concentration-dependent ATP thermostabilization [9]: no clear thermostabilization | Concentration-dependent ATP thermostabilization [10]: severely diminished | Concentration-dependent ATP thermostabilization [11]: still able to interact with ATP | Km [12]: 3 to 5 µM and 4 µM | kcat of BiP [13]: 0.000217 s⁻¹ | ΔTm at 1000 µM [14]: 1.17 °C | ΔTm (average melting temperature increase) ([15]; 1 mM nucleotide, purified wild-type SLC35B1–GFP): 5.2 °C | GFP fluorescence after heating (source data Fig 1B) ([15]; temperature 40, 1 mM substrate): 49.9464

— article PMC12267056 (Nature, 2025)
